From patent publication US6015820A, “4-Aryl-thio-pyridin-2(1H)-ones, medicines containing them and their uses in the treatment of illnesses linked to HIV” (priority 1995, dated 2000)
Like-named read-outs stand apart in the source and are kept apart here.

Key:
[1] = molecular target: inverse transcriptase of HIV-1 (HIV-1 M:B_ARV2/SF2, UniProt P03369); assay: enzymatic kinetic analysis of IT inhibition (Lineweaver-Burk); type: biochemical
Description: FIG. 12 is a double-reciprocal (Lineweaver-Burk) representation of the inhibition of the inverse transcriptase of HIV-1 by compound 7c with the poly C-oligo dG as a matrix-primer couple and dGPT as substrate.
FIG. 13 is a double-reciprocal representation, similar to […], in which the poly A-oligo dT is used as a matrix-primer couple and dTTP as substrate.
Incubation was carried out at 37° C. for 10 minutes in the presence of various matrix-primers.
a) Poly C-oligo dG: the reaction mixture contained a final volume of 0.05 ml, Tris-HCl 50 mM pH 8.0, MgCl2 5 mM, dithiothreitol 4 mM, 0.48 A260 /ml of poly C-oligo dG (5:1), 1.0 μCi of [^3 H]dGTP (28 Ci/mmole), dGTP 2 μM, KCl 80 mM, 1 μg of bovine serum albumin and IT 20-50 nM.
b) Poly A-oligo dT: the same conditions as in a), except that 0.48 A260 /ml of poly A-oligo dT (5:1), 0.5 μCi of [^3 H]dTTP (46 Ci/mmole), dTTP 20 μM were used.
The reactions were stopped by adding in the cold 1 ml of 10% trichloroacetic acid plus sodium pyrophosphate 0.1 M. The precipitates were filtered through nitrocellulose membranes, washed with 2% trichloroacetic acid, dried and counted in a PPO/POPOP/toluene scintillation mixture.

[2] = test system: HIV-1 4200 type E (primary isolate); assay: anti-HIV-1 activity, HIV-1 4200 type E (primary isolate)/PBMC; type: cell-based; settings: Human immunodeficiency virus 1, Table 4
Description: (§1) The virus production was measured by quantifying the activity of the inverse transcriptase associated with viral particles released into the culture supernatant. In short, cells were infected with 100 TCID50 for 30 minutes; after adsorption of the virus, unbound particles were removed by two washings and the cells were cultivated in the presence of different concentrations of the compounds tested for 5 days before determining the viral production. The concentration inhibiting 50% of the viral multiplication (IC50) came from the computer plot of the median effect of the dose effect results (Chou et al. Elsevier Science Publishers, Cambridge U.K. (1985), 19-28).
(§2) Thirty two compounds according to the invention were studied for their anti-HIV-1 biological activity. […] This compound was then tested with other colonies and other cell lines (Table 4).

[3] = test system: HIV-1 6 type D (primary isolate); assay: anti-HIV-1 activity, HIV-1 6 type D (primary isolate)/PBMC; type: cell-based; settings: Human immunodeficiency virus 1, Table 4
Description: as §1, §2

HIV-2 D194 = assay: anti-HIV-2 activity, HIV-2 D194/PBMC; type: cell-based; settings: Human immunodeficiency virus 2, Table 4
Description: as §1, §2

[4] = test system: HIV-1 resistant to Nevirapine (N119); assay: microbe, parasite or virus in culture; type: cell-based; settings: for IC50: Human immunodeficiency virus 1, CEM-SS
Description: The effects of the compounds were evaluated on the replication of HIV-1 (see Table 2) on CEM-SS cells (cell lines of the lymphocytic lineage) strongly infected with HIV-1 LAI as described by Moog et al. (Antiviral Research (1994), 24, 275-288). The CEM-SS and the HIV-1 resistant to Nevirapine (N119) carrying a point mutation at codon 181 of the IT, were supplied respectively by P. NARA and D. RICHMAN through the intermediary of the AIDS Research and Reference Reagent Program, Division of AIDS, NIAID, NIH (USA) (Catalogue references : No. 776 and No. 1392).
as §1

HIV-1 LAI = assay: anti-HIV-1 activity: replication of HIV-1 LAI on CEM-SS cells; type: cell-based
Method in brief: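 CEM-SS cells were infected with 100 TCID50 virus for 30 min, washed, then cultured 5 days with test compound at varied concentrations. Virus production was measured as reverse transcriptase activity in culture supernatant, and IC50 was derived by median-effect dose-effect analysis.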

[5] = cytotoxicity on non-infected cells (MTT test); type: cell-based; settings: human
Method in brief: (§3)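 Non-infected cells incubated 5 days with compounds; viability by MTT reduction to formazan via mitochondrial dehydrogenases, read at OD540. CC50 is the concentration halving OD540.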

CEM-SS cells = assay: cytotoxicity on non-infected cells (MTT test); type: cell-based; settings: Table 3; non-infected cells, MTT, 5 days
Method in brief: as §3

## CCc1c(C)[nH]c(=O)c([N+](=O)[O-])c1Sc1cc(C)cc(C)c1 [Compound 7c, 5-ethyl-6-methyl-3-nitro-4-(3', 5'-dimethylphenyl)thio-pyridin-2(1H)-one]
[1]; as regards dGTP substrate, poly C-oligo dG matrix-primer (FIG. 12)
  type of inhibition: non-competitive
[1]; poly A-oligo dT matrix-primer, dTTP substrate (FIG. 13)
  type of inhibition: competitive
[2]
  IC50: < 0.1 nM
[3]
  IC50: < 0.1 nM
HIV-2 D194
  IC50: > 10000 nM
[4]
  IC50: 23 nM
[4]; read-out: IC50, strain resistant to Nevirapine
  IC50: 260 nM
[4]; Table 3, strain resistant to Nevirapine
  SI (selectivity index): > 38
HIV-1 LAI; Human immunodeficiency virus 1, 120 h, Table 2, HIV-1 LAI, CEM-SS cells, 5 days, read-out: IC50, anti-HIV-1 activity
  IC50: 6 nM
HIV-1 LAI; Human immunodeficiency virus 1, CEM-SS, Table 4, HIV-1 (LA1)/CEMSS, read-out: IC50
  IC50: < 0.4 nM
HIV-1 LAI; Table 2, HIV-1 LAI, CEM-SS cells
  SI (selectivity index): > 1666
[5]; cem-ss cells, Table 4, line HIV-1 (LA1)/CEMSS
  CC50 at 120 h: > 10000 nM
[5]; Table 2, non-infected CEM-SS cells, MTT, 5 days
  CC50 at 120 h: > 10000 nM
CEM-SS cells
  CC50: > 10000 nM
